Legend:
Assay in all cases: relative viability (nuclei count vs DMSO), 5 days (fraction); higher = more cells survive
NCI-H596 = system: NCI-H596
In short: (§1)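 Relative viability divides the nuclei count in treated wells by that in vehicle wells. Lung cancer cell lines were seeded in 1536-well plates, dosed by pin tool the next day, and fixed and stained after 5 days in one step with final 0.05% Triton X-100, 1% formaldehyde and 1 ug/ml Hoechst. Dosing was a single drug or a fixed anchor-drug dose plus five library-drug doses (not always all listed) in √10 steps, and values are medians of duplicate plates imaged at 4×.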

PC-14 = system: PC-14
In short: as §1

NCI-H1915 = system: NCI-H1915
In short: as §1

NCI-H520 = system: NCI-H520
In short: as §1

NCI-H460 = system: NCI-H460
In short: as §1

LXF-289 = system: LXF-289
In short: as §1

NCI-H1563 = system: NCI-H1563
In short: as §1

NCI-H441 = system: NCI-H441
In short: as §1

NCI-H1792 = system: NCI-H1792
In short: as §1

NCI-H3122 = system: NCI-H3122
In short: as §1

SW 900 = system: SW 900
In short: as §1

NCI-H322M = system: NCI-H322M
In short: as §1

RERF-LC-KJ = system: RERF-LC-KJ
In short: as §1

NCI-H522 = system: NCI-H522
In short: as §1

NCI-H1355 = system: NCI-H1355
In short: as §1

NCI-H661 = system: NCI-H661
In short: as §1

SK-MES-1 = system: SK-MES-1
In short: as §1

NCI-H2347 = system: NCI-H2347
In short: as §1

LCLC-103H = system: LCLC-103H
In short: as §1

NCI-H1755 = system: NCI-H1755
In short: as §1

NCI-H1651 = system: NCI-H1651
In short: as §1

With `COc1cc2nccc(Oc3ccc(NC(=O)Nc4cc(C)on4)c(Cl)c3)c2cc1OC` [Tivozanib] + Nc1nc2[nH]cc(CCc3ccc(C(=O)N[C@@H](CCC(=O)O)C(=O)O)cc3)c2c(=O)[nH]1 [Pemetrexed] (partner 0.2 µM) the relative viability (NCI-H596; first compound 0.005 µM) was 0.492, the relative viability (NCI-H596; first compound 0.01581 µM) was 0.502 and the relative viability (NCI-H596; first compound 0.05 µM) was 0.51. It also gave a relative viability (NCI-H596; first compound 0.5 µM) of 0.508, a relative viability (PC-14; first compound 0.005 µM) of 0.124 and a relative viability (PC-14; first compound 0.01581 µM) of 0.138. The relative viability (PC-14; first compound 0.05 µM) was 0.129, the relative viability (PC-14; first compound 0.1581 µM) was 0.155 and the relative viability (PC-14; first compound 0.5 µM) was 0.115. For the same molecule, the relative viability (NCI-H1915; first compound 0.005 µM) was 0.518, the relative viability (NCI-H1915; first compound 0.01581 µM) was 0.467 and the relative viability (NCI-H1915; first compound 0.05 µM) was 0.504. For the same molecule, the relative viability (NCI-H1915; first compound 0.1581 µM) was 0.468, the relative viability (NCI-H1915; first compound 0.5 µM) was 0.46 and the relative viability (NCI-H520; first compound 0.005 µM) was 0.525. It also gave a relative viability (NCI-H520; first compound 0.01581 µM) of 0.572, a relative viability (NCI-H520; first compound 0.05 µM) of 0.552 and a relative viability (NCI-H520; first compound 0.1581 µM) of 0.579. For the same molecule, the relative viability (NCI-H520; first compound 0.5 µM) was 0.61, the relative viability (NCI-H460; first compound 0.005 µM) was 0.0664 and the relative viability (NCI-H460; first compound 0.01581 µM) was 0.0619. For the same molecule, the relative viability (NCI-H460; first compound 0.05 µM) was 0.0637, the relative viability (NCI-H460; first compound 0.1581 µM) was 0.063 and the relative viability (NCI-H460; first compound 0.5 µM) was 0.0689. For the same molecule, the relative viability (LXF-289; first compound 0.005 µM) was 0.853, the relative viability (LXF-289; first compound 0.01581 µM) was 0.9 and the relative viability (LXF-289; first compound 0.05 µM) was 0.929. It also gave a relative viability (LXF-289; first compound 0.1581 µM) of 1.04, a relative viability (LXF-289; first compound 0.5 µM) of 0.887 and a relative viability (NCI-H1563; first compound 0.005 µM) of 0.657. For the same molecule, the relative viability (NCI-H1563; first compound 0.01581 µM) was 0.887, the relative viability (NCI-H1563; first compound 0.05 µM) was 0.698 and the relative viability (NCI-H1563; first compound 0.1581 µM) was 0.594. The relative viability (NCI-H1563; first compound 0.5 µM) was 0.728, the relative viability (NCI-H441; first compound 0.005 µM) was 0.245 and the relative viability (NCI-H441; first compound 0.01581 µM) was 0.296. The relative viability (NCI-H441; first compound 0.05 µM) was 0.246, the relative viability (NCI-H441; first compound 0.1581 µM) was 0.249 and the relative viability (NCI-H441; first compound 0.5 µM) was 0.239. It also gave a relative viability (NCI-H1792; first compound 0.005 µM) of 0.865, a relative viability (NCI-H1792; first compound 0.01581 µM) of 0.792 and a relative viability (NCI-H1792; first compound 0.05 µM) of 1.02. It also gave a relative viability (NCI-H1792; first compound 0.5 µM) of 1, a relative viability (NCI-H3122; first compound 0.005 µM) of 0.197 and a relative viability (NCI-H3122; first compound 0.01581 µM) of 0.222. For the same molecule, the relative viability (NCI-H3122; first compound 0.05 µM) was 0.198, the relative viability (NCI-H3122; first compound 0.1581 µM) was 0.204 and the relative viability (NCI-H3122; first compound 0.5 µM) was 0.19. For the same molecule, the relative viability (SW 900; first compound 0.005 µM) was 0.463, the relative viability (SW 900; first compound 0.01581 µM) was 0.465 and the relative viability (SW 900; first compound 0.05 µM) was 0.507. The relative viability (SW 900; first compound 0.5 µM) was 0.493, the relative viability (NCI-H322M; first compound 0.005 µM) was 0.586 and the relative viability (NCI-H322M; first compound 0.01581 µM) was 0.621. For the same molecule, the relative viability (NCI-H322M; first compound 0.05 µM) was 0.588, the relative viability (NCI-H322M; first compound 0.1581 µM) was 0.635 and the relative viability (NCI-H322M; first compound 0.5 µM) was 0.602. For the same molecule, the relative viability (RERF-LC-KJ; first compound 0.005 µM) was 0.465, the relative viability (RERF-LC-KJ; first compound 0.01581 µM) was 0.441 and the relative viability (RERF-LC-KJ; first compound 0.05 µM) was 0.479. For the same molecule, the relative viability (RERF-LC-KJ; first compound 0.1581 µM) was 0.465, the relative viability (RERF-LC-KJ; first compound 0.5 µM) was 0.439 and the relative viability (NCI-H522; first compound 0.005 µM) was 1.03. The relative viability (NCI-H522; first compound 0.01581 µM) was 1.1, the relative viability (NCI-H522; first compound 0.05 µM) was 1.04 and the relative viability (NCI-H522; first compound 0.1581 µM) was 0.824. The relative viability (NCI-H522; first compound 0.5 µM) was 1.15, the relative viability (NCI-H1355; first compound 0.005 µM) was 1.03 and the relative viability (NCI-H1355; first compound 0.01581 µM) was 1.01. It also gave a relative viability (NCI-H1355; first compound 0.05 µM) of 1.04, a relative viability (NCI-H1355; first compound 0.1581 µM) of 0.763 and a relative viability (NCI-H1355; first compound 0.5 µM) of 1.07. The relative viability (NCI-H661; first compound 0.005 µM) was 0.887, the relative viability (NCI-H661; first compound 0.01581 µM) was 0.928 and the relative viability (NCI-H661; first compound 0.05 µM) was 0.922. The relative viability (NCI-H661; first compound 0.1581 µM) was 0.909, the relative viability (NCI-H661; first compound 0.5 µM) was 0.854 and the relative viability (SK-MES-1; first compound 0.005 µM) was 0.89. It also gave a relative viability (SK-MES-1; first compound 0.01581 µM) of 0.956, a relative viability (SK-MES-1; first compound 0.05 µM) of 1.13 and a relative viability (SK-MES-1; first compound 0.1581 µM) of 0.948. It also gave a relative viability (SK-MES-1; first compound 0.5 µM) of 0.994, a relative viability (NCI-H2347; first compound 0.005 µM) of 0.4 and a relative viability (NCI-H2347; first compound 0.01581 µM) of 0.458. It also gave a relative viability (NCI-H2347; first compound 0.05 µM) of 0.388, a relative viability (NCI-H2347; first compound 0.1581 µM) of 0.427 and a relative viability (NCI-H2347; first compound 0.5 µM) of 0.487. For the same molecule, the relative viability (LCLC-103H; first compound 0.005 µM) was 0.453, the relative viability (LCLC-103H; first compound 0.01581 µM) was 0.508 and the relative viability (LCLC-103H; first compound 0.05 µM) was 0.49. The relative viability (LCLC-103H; first compound 0.1581 µM) was 0.459, the relative viability (LCLC-103H; first compound 0.5 µM) was 0.46 and the relative viability (NCI-H1755; first compound 0.005 µM) was 0.376. For the same molecule, the relative viability (NCI-H1755; first compound 0.01581 µM) was 0.437, the relative viability (NCI-H1755; first compound 0.05 µM) was 0.571 and the relative viability (NCI-H1755; first compound 0.1581 µM) was 0.468. The relative viability (NCI-H1755; first compound 0.5 µM) was 0.361, the relative viability (NCI-H1651; first compound 0.005 µM) was 0.54 and the relative viability (NCI-H1651; first compound 0.01581 µM) was 0.52. For the same molecule, the relative viability (NCI-H1651; first compound 0.05 µM) was 0.683, the relative viability (NCI-H1651; first compound 0.1581 µM) was 0.421 and the relative viability (NCI-H1651; first compound 0.5 µM) was 0.574.

Source: the supplement of paper PMC10307832
